From patent publication US9611514B2, “Method for selection of hDIS3 PIN domain inhibitors and use of hDIS3 PIN domain inhibitors for cancer treatment” (INSTYTUT BIOCHEMII I BIOFIZYKI POLSKIEJ AKADEMII NAUK, priority 2013, dated 2017)

Columns and labels:
[1] = tested on: yeast harboring G833R mutation (dis3-G833R); assay: Yeast growth assay, serial dilutions spotted on YPD plates; format: cell-based, S. cerevisiae; conditions: 1 mM in YPD plates, 30° C., 60 hours
Method: (§1) FIG. 12. […] Serial dilutions of indicated yeast strains were spotted on YPD plates and YPD plates with 2-hydroxy-(4H)-isoquinoline-1,3-dione (at 1 mM concentration) and incubated at 30° C. for 60 hours.
(§2) Yeast strains described above were grown in complete YPD medium at 30° C. overnight until OD600 reached 0.2 before spotting serial dilutions onto YPD plates. Cell growth was analyzed after 60 h of incubation at 25° C., 30° C. or 37° C. Analysis of viability for strains harboring mutations in both PIN and RNB domains of Dis3 was carried out by sporulation of ADZY713 and ADZY716 diploid strains, followed by tetrad dissection.
(§3) Yeast strains harboring G833R or R847K mutations, obtained in Example II were used for growth assays. Serial dilutions of indicated yeast strains were spotted on YPD plates and YPD plates with 2-hydroxy-(4H)-isoquinoline-1,3-dione (at 1 mM concentration) and incubated at 30° C. for 60 hours.

[2] = tested on: yeast harboring R847K mutation (dis3-R847K); assay: as above; format: cell-based, S. cerevisiae; conditions: 1 mM in YPD plates, 30° C., 60 hours
Method: as §1, §2, §3

[3] = target: T1, isolated PIN domain of hDIS3 (Homo sapiens, UniProt Q9Y2L1); assay: hDIS3 PIN domain endonucleolytic activity assay (RNA substrate digestion, denaturing PAGE, fluorimaging); format: biochemical; conditions: 80 μM concentration; 5′ fluoresceine-labeled ss17-(A)34 substrate; 1 mM manganese
T1 construct: made in house
T1 sequence (Q9Y2L1 1-217): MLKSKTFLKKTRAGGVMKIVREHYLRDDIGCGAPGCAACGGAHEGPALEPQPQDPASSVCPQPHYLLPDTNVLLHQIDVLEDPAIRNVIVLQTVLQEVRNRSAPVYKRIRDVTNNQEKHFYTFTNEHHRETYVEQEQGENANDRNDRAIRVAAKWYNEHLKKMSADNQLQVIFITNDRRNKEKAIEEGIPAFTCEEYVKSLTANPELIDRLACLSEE
Method: FIGS. 11A-B. 2-hydroxy-(4H)-isoquinoline-1,3-dione (AClLAHYL) inhibits the endonucleolytic activity of isolated PIN domain of hDIS3. A) SDS-PAGE analysis of the recombinant hDIS3 PIN domain; B) Activity assay. 5′ fluoresceine-labeled ss17-(A)34 substrate was incubated in a buffer containing 1 mM manganese with recombinant hDIS3 PIN domain in the presence or absence of 2-hydroxy-(4H)-isoquinoline-1,3-dione. A control reaction was also performed, which contained the inhibitor but lacked any added protein. Reactions were terminated at the indicated time points, followed by denaturing PAGE and fluorimaging.
In vitro enzymatic assays of hDIS3 exoribonucleolytic activity were performed in 10 mM Tris-HCl, pH 8.0; 75 mM NaCl; 1 mM 2-mercaptoethanol, 100 μM MgCl2. Protein concentration was 0.1 μM, while substrate concentration was 0.2 μM or 2 μM for duplex and unstructured RNA molecules, respectively. For gel-based analyses, reactions were performed at 37° C. for the indicated times and then terminated by formamide loading dye Reaction products were resolved in denaturing 20% polyacrylamide, 8 M urea, 1xTBE gels. In the case of TLC-based experiment, samples were collected by mixing aliquots of the reaction mixtures with 1 μl of 0.5 M EDTA and subsequently analysed by running them on PEI-cellulose plates (Schleicher & Schuell) in 0.5 M LiCl/1M formic acid, using non-radioactive UMP as a marker. […]

## O=C1Cc2ccccc2C(=O)N1O [2-hydroxy-(4H)-isoquinoline-1,3-dione]
[1]
  growth inhibition of yeast harboring G833R mutation: complete growth inhibition
[2]
  growth inhibition of yeast harboring R847K mutation: complete growth inhibition
[3]
  inhibition of the endonucleolytic activity of human DIS3 PIN domain: efficiently inhibited
